Results: patent US20080220101A1, “COMPOSITIONS OF EXTRACTS OF ALOE FOR ORAL ADMINISTRATION” (priority 2007, published 2008)
Marks after values point to notes of the source that are not given here. Residues, ends and D or L forms follow the SMILES beside them.

Columns and labels:
Assay type in all cases: in vivo
[1] = tested on: medial sensilla of Spodoptera littoralis larvae; test: Electrophysiology: neural response of the medial sensilla after cannulation; conditions: for Impulses per second from the medial styloconic sensilla, stimulus C: stimulus KCl (0.05M); for Impulses per second from the medial styloconic sensilla, stimulus P: stimulus amino acid mixture; for Impulses per second from the medial styloconic sensilla, stimulus G: stimulus glucose (0.05M); for Impulses per second from the medial styloconic sensilla, stimulus S: stimulus sucrose (0.05M)
Text: Insects use sensilla on their mouthparts to taste their food. These sensilla contain neurones that respond to compounds in their food. An electrophysiological bioassay has been developed to record the neural impulses from the four neurones in each sensilla. […] Previous experiments have shown that the responsiveness of the insects can be influenced by the diet an insect has been reared on and previous exposure to a compound. The physiological condition of the insect can also influence the responsiveness of these neurones. In these experiments, we […] classify the neurones down to specific neurones but this requires some further experiments not undertaken in this study. […] Each larva was tested with KCl (C=0.05M) as a control, sucrose (S=0.05M), glucose (G=0.05M) and amino acid mix (P=0.05M). A set of experiments were undertaken on a control non-cannulated group of insects. […] Prior to the experiment, the insects had been standardized as in the behavioral experiments.

[2] = tested on: Spodoptera littoralis; test: Binary choice glass-fiber disc feeding bioassay (Feeding Index); conditions: for Feeding response in words, in combination with glucose: glucose 0.05M; for Feeding response in words, in combination with glucose / Feeding response in words, in combination with sucrose: 100, 1000 and 10,000 ppm; for Feeding Index: n = 15; for Feeding response in words, in combination with sucrose: sucrose 0.05M
Description: All experiments were done on the final stage larvae of Spodoptera littoralis. Prior to the experiment, the insects were deprived of food for 2 hours. This has been calculated as a period when most insects would commence feeding. Thus, the food from the previous meal has started to pass into and through the gut. The initial experiment investigated whether the insects could “taste” the plant preparations or extracts and whether they stimulated or deterred feeding. […] A negative value indicates a phagostimulant and a positive value indicates an appetite suppressant. Experiments are usually repeated with between 10-20 insects and the data are analysed using the Wilcoxon matched pairs test. A series of controls were used at the start of the experiment to illustrate the difference in the response of the larvae to sucrose and glucose both tested at 0.05M. Results have been presented as means.

[3] = tested on: larvae of Spodoptera littoralis; test: Behavioral response of cannulated insects to glucose (latency, meal duration, time to second meal); conditions: glucose treated disc, solvent water
Description: Material and methods. Final stage larvae were removed from food and after 2 hours, they were cannulated via the oral cavity with […] of a test solution, with water used as a control. The extracts were tested at 10,000 ppm, 1,000 ppm and 100 ppm. The insects were then placed in a Petri dish with a glucose treated glass-fiber disc. The time taken for the insects to start a meal (latency), the duration of a meal (meal duration) and the time taken to take the second meal were recorded. This provides information about whether the extracts once consumed would delay feeding, whether the extracts would alter the duration of a meal once it had started, and whether the time to the second meal would be altered. […] The time to the start of a meal was extended, when compared with the water control, after cannulation with Aloe and Ginseng. Aloe acted as stimulants in the glass-fiber disc bioassays, whereas Ginseng was a potent suppressant. Thus, the Ginseng could be having a negative activity on time to feed, whereas the response to Aloe could be because of a “positive” response. The end effect is the same in that both groups caused an increase in the latency to feed. […] None of the extracts influenced the duration of the first recorded meal.

[4] = 30 min after cannulation at 1000 ppm
[5] = 1 h after cannulation at 1000 ppm
[6] = in combination with glucose 0.05M, extract 100 ppm
[7] = in combination with glucose 0.05M, extract 1,000 ppm
[8] = in combination with glucose 0.05M, extract 10,000 ppm
[9] = in combination with sucrose 0.05M, extract 100 ppm
[10] = in combination with sucrose 0.05M, extract 1,000 ppm
[11] = in combination with sucrose 0.05M, extract 10,000 ppm

## COC(=O)[C@H](Cc1ccccc1)NC(=O)[C@@H](N)CC(=O)O [Aspartame] (H-Asp-Phe-OMe)
[1]; [4]
  Impulses per second from the medial styloconic sensilla, stimulus C: 10 impulses per second
  Impulses per second from the medial styloconic sensilla, stimulus P: 24 impulses per second
  Impulses per second from the medial styloconic sensilla, stimulus G: 45 impulses per second
  Impulses per second from the medial styloconic sensilla, stimulus S: 57 impulses per second
[1]; [5]
  Impulses per second from the medial styloconic sensilla, stimulus C: 12 impulses per second
  Impulses per second from the medial styloconic sensilla, stimulus P: 24 impulses per second
  Impulses per second from the medial styloconic sensilla, stimulus G: 25 impulses per second
  Impulses per second from the medial styloconic sensilla, stimulus S: 48 impulses per second
[2]
  Feeding response in words, in combination with glucose: stimulated feeding at lower concentrations
  Feeding response in words, in combination with sucrose: not significant
[2]; [6]
  Feeding Index: −25* %
[2]; [7]
  Feeding Index: −31* %
[2]; [8]
  Feeding Index: −24%
[2]; [9]
  Feeding Index: −15%
[2]; [10]
  Feeding Index: 14%
[2]; [11]
  Feeding Index: 15%
[3]; concentration 0.1k (100 ppm)
  Latency: 21 min
  Meal duration: 17 min
  Time to 2nd meal: 15 min
[3]; concentration 1k (1,000 ppm)
  Latency: 24 min
  Meal duration: 12 min
  Time to 2nd meal: 15 min
[3]; concentration 10k (10,000 ppm)
  Latency: 20 min
  Meal duration: 12 min
  Time to 2nd meal: 17 min

## O=C1NS(=O)(=O)c2ccccc21 [Saccharin]
[1]; [4]
  Impulses per second from the medial styloconic sensilla, stimulus C: 9 impulses per second
  Impulses per second from the medial styloconic sensilla, stimulus P: 29 impulses per second
  Impulses per second from the medial styloconic sensilla, stimulus G: 45 impulses per second
  Impulses per second from the medial styloconic sensilla, stimulus S: 65 impulses per second
[1]; [5]
  Impulses per second from the medial styloconic sensilla, stimulus C: 15 impulses per second
  Impulses per second from the medial styloconic sensilla, stimulus P: 47 impulses per second
  Impulses per second from the medial styloconic sensilla, stimulus G: 28 impulses per second
  Impulses per second from the medial styloconic sensilla, stimulus S: 48 impulses per second
[2]
  Feeding response in words, in combination with glucose: stimulated feeding at lower concentrations
  Feeding response in words, in combination with sucrose: not significant
[2]; [6]
  Feeding Index: −24* %
[2]; [7]
  Feeding Index: −25* %
[2]; [8]
  Feeding Index: −18%
[2]; [9]
  Feeding Index: −16%
[2]; [10]
  Feeding Index: −5%
[2]; [11]
  Feeding Index: 5%
[3]; concentration 0.1k (100 ppm)
  Latency: 24 min
  Meal duration: 16 min
  Time to 2nd meal: 11 min
[3]; concentration 1k (1,000 ppm)
  Latency: 24 min
  Meal duration: 14 min
  Time to 2nd meal: 18 min
[3]; concentration 10k (10,000 ppm)
  Latency: 25 min
  Meal duration: 14 min
  Time to 2nd meal: 18 min

## OC[C@H]1O[C@@](CO)(O[C@H]2O[C@H](CO)[C@@H](O)[C@H](O)[C@H]2O)[C@@H](O)[C@@H]1O [Sucrose]
[2]; control disc sucrose 0.05M versus treatment disc sucrose 0.05M, 18 hours
  Feeding Index: 10.7%
[2]; control disc sucrose 0.05M versus untreated treatment disc, 18 hours
  Feeding Index: 46.3* %
[2]; sucrose versus glucose, both 0.05M
  Phagostimulant potency in words: more potent phagostimulant to S. littoralis than glucose
